This passage reports IC50 results from patent US11464770B2, “Anticancer pharmaceutical composition” (NATIONAL CANCER CENTER, priority 2016, dated 2022).

Read-outs that look alike come from different tables or passages of the source.

Assay [1] relates to bladder cancer cell lines. As to the kind of experiment: Cell based assay, cell viability (CellTiter-Glo), bladder cancer cell lines. In a few lines: (§1)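 Luminescent ATP assay quantified surviving cells after three days of treatment. Compound was applied at final concentrations of 0 to 2 μM, starting 24 h after cells were seeded.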
Background: In ATP-based viability assays light output follows the ATP content of the culture.

For assay [2], the system named is prostate cancer cell lines (e.g. DU145/TXR). As to the kind of experiment: Cell based assay, cell viability (CellTiter-Glo), prostate cancer cell lines. Particulars: Homo sapiens, 72 hours treatment, final concentration 0 to 2 μM. Put shortly: as §1
The test system of the next assay is neuroblastoma cell lines. As to the kind of experiment: Cell based assay, cell viability (CellTiter-Glo), neuroblastoma cell lines. Particulars: Homo sapiens; SH-SY5Y cell line. In a few lines: as §1
The test system of the next assay is liver cancer cell lines. As to the kind of experiment: Cell based assay, cell viability (CellTiter-Glo), liver cancer cell lines. Conditions: Homo sapiens, SK-HEP1; SK-HEP-1 cell line. Put shortly: as §1
In assay [3] the test system is ovarian cancer cell lines. Nature of the assay: Cell based assay, cell viability (CellTiter-Glo), ovarian cancer cell lines. Conditions: Homo sapiens; OVCAR-3 cells. Put shortly:
as §1

For assay [4], the system named is RT4: human urinary bladder transitional cell papilloma. As to the kind of experiment: Cell based assay, cytotoxicity in RT4 papilloma cells (selectivity). Conditions: Homo sapiens, RT-4; RT4 cells.
The mark [5] stands for this setting: 253J cells, 72 hours treatment, 0 to 2 μM, CellTiter-Glo, read-out: IC50, bladder cancer cell line 253J.
Setting [6] is: 5637 cells, 72 hours treatment, 0 to 2 μM, CellTiter-Glo, read-out: IC50, bladder cancer cell line 5637.
Where [7] appears, read: Homo sapiens, T-24, T24 cells, 72 hours treatment, 0 to 2 μM, CellTiter-Glo, read-out: IC50, bladder cancer cell line T24.
Setting [8] is: Homo sapiens, J82 cells, 72 hours treatment, 0 to 2 μM, CellTiter-Glo, read-out: IC50, bladder cancer cell line J82.
Setting [9] is: CWR22 cells, read-out: IC50, prostate cancer cell line CWR22.
Where [10] appears, read: DU-145, DU145/TXR cells, read-out: IC50, prostate cancer cell line DU145/TXR.
Where [11] appears, read: DU-145, DU145 cells, read-out: IC50, prostate cancer cell line DU145.
Setting [12] is: LNcap cells, read-out: IC50, prostate cancer cell line LNcap.
[13] abbreviates: PC-3 cells, read-out: IC50, prostate cancer cell line PC-3.

On to `CC(=O)c1c([S+]([O-])Cc2ccc(-n3cccn3)nc2)[nH]c2c(Br)ccc(Cl)c2c1=O` (stereo not shown) [Compound 99, 2-(((6-(1H-pyrazol-1-yl)pyridin-3-yl)methyl)sulfinyl)-3-acetyl-8-bromo-5-chloroquinolin-4(1H)-one], for which the IC50 in assay [1] (setting [5]) amounted to 800 nM; in assay [1] (setting [6]) it was 1620 nM; in assay [1] (setting [7]), 850 nM; in assay [1] (setting [8]), 1500 nM; in assay [2] (setting [9]) it was 1240 nM; in assay [2] (setting [10]), 1060 nM. In addition, the IC50 in assay [2] (setting [11]) was 970 nM; in assay [2] (setting [12]) it was more than 2000 nM; in assay [2] (setting [13]), 1510 nM; in the assay on neuroblastoma cell lines, 450 nM; in the assay with liver cancer cell lines, 1060 nM; in assay [3] it was 630 nM. Besides, in assay [4], the IC50 was more than 10000 nM.
Consider `CC(=O)c1c([S+]([O-])Cc2ccc(N)nc2)[nH]c2c(Br)ccc(Cl)c2c1=O` (stereo not shown) [Compound 100, 3-acetyl-2-(((6-aminopyridin-3-yl)methyl)sulfinyl)-8-bromo-5-chloroquinolin-4(1H)-one], for which the IC50 in assay [1] (setting [5]), in assay [1] (setting [6]), in assay [1] (setting [7]), in assay [1] (setting [8]), in assay [2] (setting [9]) and in assay [2] (setting [10]) was more than 2000 nM each time. The IC50 in assay [2] (setting [11]) is more than 2000 nM; in assay [2] (setting [12]), more than 2000 nM; in the assay with neuroblastoma cell lines, more than 2000 nM; in the assay on liver cancer cell lines, more than 2000 nM; in assay [3], more than 2000 nM; in assay [4], more than 10000 nM.
For the molecule `O=C(c1c([S+]([O-])Cc2ccc(SC(F)(F)F)cc2)[nH]c2c(Br)ccc(Cl)c2c1=O)C1CC1` (stereo not shown) [Compound 101, 8-bromo-5-chloro-3-(cyclopropanecarbonyl)-2-((4-((trifluoromethyl)thio)benzyl)sulfinyl)quinolin-4(1H)-one], the IC50 in assay [1] (setting [6]) is more than 2000 nM; in assay [1] (setting [7]), more than 2000 nM; in assay [1] (setting [8]), more than 2000 nM; in assay [2] (setting [9]), more than 2000 nM; in assay [2] (setting [10]), 1420 nM; in assay [2] (setting [11]), 1340 nM. Further, the IC50 was more than 2000 nM in assay [2] (setting [12]); more than 2000 nM in assay [2] (setting [13]); 1400 nM in the assay with neuroblastoma cell lines; more than 2000 nM with liver cancer cell lines; 1990 nM in assay [3]; more than 10000 nM in assay [4].
With `CC(=O)c1c([S+]([O-])Cc2ccc(C(F)(F)F)nc2C)[nH]c2c(Br)ccc(Cl)c2c1=O` (stereo not shown) [Compound 102, 3-acetyl-8-bromo-5-chloro-2-(((2-methyl-6-(trifluoromethyl)pyridin-3-yl)methyl)sulfinyl)quinolin-4(1H)-one], the IC50 in assay [1] (setting [6]) is more than 2000 nM; in assay [1] (setting [7]) it was 1030 nM; in assay [1] (setting [8]) it was more than 2000 nM; in assay [2] (setting [9]), 1490 nM; in assay [2] (setting [10]), 1120 nM; in assay [2] (setting [11]), 1650 nM. Further, the IC50 was more than 2000 nM in assay [2] (setting [12]); 1830 nM in assay [2] (setting [13]); 520 nM with neuroblastoma cell lines; more than 2000 nM with liver cancer cell lines; 930 nM in assay [3]; more than 10000 nM in assay [4].
On to `CC(=O)c1c([S+]([O-])Cc2ccc(NS(C)(=O)=O)cc2)[nH]c2c(Br)ccc(Cl)c2c1=O` (stereo not shown) [Compound 103, N-(4-(((3-acetyl-8-bromo-5-chloro-4-oxo-1,4-dihydroquinolin-2-yl)sulfinyl)methyl)phenyl)methane-sulfonamide], for which the IC50 in assay [1] (setting [5]), in assay [1] (setting [6]), in assay [1] (setting [7]), in assay [1] (setting [8]), in assay [2] (setting [9]) and in assay [2] (setting [10]) was more than 2000 nM each time. Moreover, the IC50 was more than 2000 nM in assay [2] (setting [11]); more than 2000 nM in assay [2] (setting [12]); 1010 nM with neuroblastoma cell lines; more than 2000 nM in the assay with liver cancer cell lines; more than 2000 nM in assay [3]; more than 10000 nM in assay [4].
In the case of `CC(=O)c1c([S+]([O-])Cc2ccc(Cl)nc2)[nH]c2c(Br)ccc(Cl)c2c1=O` (stereo not shown) [Compound 104, 3-acetyl-8-bromo-5-chloro-2-(((6-chloropyridin-3-yl)methyl)sulfinyl)quinolin-4(1H)-one], the IC50 in assay [1] (setting [6]) is more than 2000 nM; in assay [1] (setting [7]), 1030 nM; in assay [1] (setting [8]) it was more than 2000 nM; in assay [2] (setting [9]), 1550 nM; in assay [2] (setting [10]) it was 1230 nM; in assay [2] (setting [11]), 1640 nM. Further, the IC50 is more than 2000 nM in assay [2] (setting [12]); more than 2000 nM in assay [2] (setting [13]); 600 nM with neuroblastoma cell lines; 1500 nM in the assay on liver cancer cell lines; 840 nM in assay [3]; more than 10000 nM in assay [4].
Take `COCCNc1ccc(C[S+]([O-])c2[nH]c3c(Br)ccc(Cl)c3c(=O)c2C(C)=O)cn1` (stereo not shown) [Compound 105, 3-acetyl-8-bromo-5-chloro-2-(((6-((2-methoxyethyl)amino)pyridin-3-yl)methyl)sulfinyl)quinolin-4(1H)-one]: the IC50 in assay [1] (setting [5]), in assay [1] (setting [6]), in assay [1] (setting [7]), in assay [1] (setting [8]), in assay [2] (setting [9]) and in assay [2] (setting [10]) was more than 2000 nM throughout. Also, the IC50 in assay [2] (setting [11]) is more than 2000 nM; in assay [2] (setting [12]), more than 2000 nM; in the assay with neuroblastoma cell lines, more than 2000 nM; in the assay on liver cancer cell lines, more than 2000 nM; in assay [3], more than 2000 nM; in assay [4], more than 10000 nM.
Regarding `CC(=O)c1c([S+]([O-])Cc2nonc2C)[nH]c2c(Br)ccc(Cl)c2c1=O` (stereo not shown) [Compound 106, 3-acetyl-8-bromo-5-chloro-2-(((4-methyl-1,2,5-oxadiazol-3-yl)methyl)sulfinyl)quinolin-4(1H)-one], the IC50 in assay [1] (setting [5]), in assay [1] (setting [6]), in assay [1] (setting [7]), in assay [1] (setting [8]), in assay [2] (setting [9]) and in assay [2] (setting [10]) was more than 2000 nM throughout. Moreover, the IC50 in assay [2] (setting [11]) is more than 2000 nM; in assay [2] (setting [12]), more than 2000 nM; in the assay with neuroblastoma cell lines it was 1290 nM; in the assay on liver cancer cell lines it was more than 2000 nM; in assay [3] it was more than 2000 nM; in assay [4] it was more than 10000 nM.
Take `CC(=O)c1c([S+]([O-])Cc2cnc3[nH]ccc3c2)[nH]c2c(Br)ccc(Cl)c2c1=O` (stereo not shown) [Compound 107, 2-(((1H-pyrrolo[2,3-b]pyridin-5-yl)methyl)sulfinyl)-3-acetyl-8-bromo-5-chloroquinolin-4(1H)-one]: the IC50 in assay [1] (253J cells, 72 hours, cell viability (CellTiter-Glo), read-out: IC50, 253J bladder cancer cell line) was more than 2000 nM; in assay [1] (5637 cells, 72 hours, cell viability (CellTiter-Glo), read-out: IC50, 5637 bladder cancer cell line) it was more than 2000 nM; in assay [1] (Homo sapiens, T-24, T24 cells, 72 hours, cell viability (CellTiter-Glo), read-out: IC50, T24 bladder cancer cell line), more than 2000 nM; in assay [1] (Homo sapiens, J82 cells, 72 hours, cell viability (CellTiter-Glo), read-out: IC50, J82 bladder cancer cell line) it was more than 2000 nM; in assay [2] (setting [9]), more than 2000 nM; in assay [2] (setting [10]), more than 2000 nM. Also, the IC50 in assay [2] (setting [11]) was more than 2000 nM; in assay [2] (setting [12]), more than 2000 nM; in the assay with neuroblastoma cell lines, more than 2000 nM; with liver cancer cell lines, more than 2000 nM; in assay [3] it was more than 2000 nM; in assay [4], more than 10000 nM.
